Assay [1] deals with JAK1-dependent STAT6 phosphorylation downstream of IL-13 stimulation (TF-1 / BEAS-2B cells). Kind of assay: JAK1 pathway assay in cell lines (IL-13-stimulated pSTAT6, MSD). The conditions noted are these: Homo sapiens, inhibition of STAT6 phosphorylation, cell line (TF-1 or BEAS-2B) not specified. The assay is classed as cell-based. The protocol: JAK1 Pathway Assay in Cell Lines was Carried Out as Follows:
Inhibitor potency (EC50) was determined in cell-based assays designed to measure JAK1 dependent STAT phosphorylation. As noted above, inhibition of IL-4, IL-13, and IL-9 signalling by blocking the Jak/Stat signaling pathway can alleviate asthmatic symptoms in pre-clinical lung inflammation models (Mathew et al., 2001, J Exp Med 193(9): 1087-1096; Kudlacz et. al., 2008, Eur J. Pharmacol 582(1-3): 154-161).
In one assay approach, TF-1 human erythroleukemia cells obtained from the American Type Culture Collection (ATCC; Manassas, Va.) were used to measure JAK1-dependent STAT6 phosphorylation downstream of IL-13 stimulation. Prior to use in the assays, TF-1 cells were starved of GM-CSF overnight in OptiMEM medium (Life Technologies, Grand Island, N.Y.) supplemented with 0.5% charcoal/dextran stripped fetal bovine serum (FBS), 0.1 mM non-essential amino acids (NEAA), and 1 mM sodium pyruvate. The assays were run in 384-well plates in serum-free OptiMEM medium using 300,000 cells per well. In a second assay approach, BEAS-2B human bronchial epithelial cells obtained from ATCC were plated at 100,000 cells per well of a 96-well plate one day prior to the experiment. The BEAS-2B assay was run in complete growth medium (bronchial epithelial basal medium plus bulletkit; Lonza; Basel, Switzerland).
Test compounds were serially diluted 1:2 in DMSO and then diluted 1:50 in medium just before use. Diluted compounds were added to the cells, for a final DMSO concentration of 0.2%, and incubated for 30 min (for the TF-1 assay) or 1 hr (for the BEAS-2B assay) at 37° C. Then, cells were stimulated with human recombinant cytokine at their respective EC90 concentrations, as previously determined for each individual lot. Cells were stimulated with IL-13 (R&D Systems, Minneapolis, Minn.) for 15 min at 37° C. The TF-1 cell reactions were stopped by the direct addition of 10× lysis buffer (Cell Signaling Technologies, Danvers, Mass.), whereas the BEAS-2B cell incubations were halted by the removal of medium and addition of 1× lysis buffer. The resultant samples were frozen in the plates at −80° C. Compound mediated inhibition of STAT6 phosphorylation was measured in the cell lysates using MesoScale Discovery (MSD) technology (Gaithersburg, Md.). EC50 values were determined as the concentration of compound required for 50% inhibition of STAT phosphorylation relative to that measured for the DMSO control.

Assay [2] concerns the target isolated recombinant JAK2 kinase domain (Homo sapiens (Human), UniProt O60674). Kind of assay: JAK enzyme assay (Caliper LabChip peptide phosphorylation), JAK2. The format is biochemical. The conditions noted are these: 0.2 nM JAK2, ATP 25 μM, Morrison tight binding model.
The target in assay [3] is isolated recombinant JAK1 kinase domain (Homo sapiens (Human), UniProt P23458). Kind of assay: JAK enzyme assay (Caliper LabChip peptide phosphorylation), JAK1. The format is biochemical. The conditions noted are these: 1.5 nM JAK1, ATP 25 μM, Morrison tight binding model.

SMILES strings stand for the structures.

Usually IC50 stands for the concentration needed to halve the response being measured. A higher IC50 goes with weaker potency in that assay. A word on the Ki: it is the dissociation constant of the complex between target and ligand, obtained from inhibition or displacement.

Chain of isolated recombinant JAK2 kinase domain (O60674 849-1124): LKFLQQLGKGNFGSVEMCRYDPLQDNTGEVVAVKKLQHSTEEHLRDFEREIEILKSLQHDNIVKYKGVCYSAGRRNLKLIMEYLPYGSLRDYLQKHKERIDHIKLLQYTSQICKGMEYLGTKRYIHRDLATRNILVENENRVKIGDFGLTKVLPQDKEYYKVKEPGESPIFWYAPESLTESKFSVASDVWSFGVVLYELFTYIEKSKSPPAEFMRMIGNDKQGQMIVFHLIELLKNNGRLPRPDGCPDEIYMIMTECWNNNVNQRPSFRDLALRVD
Chain of isolated recombinant JAK1 kinase domain (P23458 875-1153): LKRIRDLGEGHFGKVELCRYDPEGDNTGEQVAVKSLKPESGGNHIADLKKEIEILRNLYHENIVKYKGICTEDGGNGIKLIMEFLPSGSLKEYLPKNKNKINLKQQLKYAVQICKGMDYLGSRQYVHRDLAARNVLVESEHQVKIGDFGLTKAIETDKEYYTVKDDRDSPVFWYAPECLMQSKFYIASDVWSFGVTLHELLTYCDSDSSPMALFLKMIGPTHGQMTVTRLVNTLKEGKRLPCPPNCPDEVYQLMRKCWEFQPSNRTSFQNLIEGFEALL

In the case of `COc1ccc(Cl)cc1-c1nn(C)cc1NC(=O)c1cncc2cn(C)nc12` [Example 1, N-(3-(5-Chloro-2-methoxyphenyl)-1-methyl-1H-pyrazol-4-yl)-2-methyl-2H-pyrazolo[4,3-c]pyridine-7-carboxamide], in assay [1], half-maximal inhibition (IC50) was put at 92.8 nM. Moreover, the Ki in assay [2] is 3.66 nM; in assay [3], 3.63 nM.

In the case of `COc1ccc(Cl)cc1-c1nn(C)cc1NC(=O)c1cncc2cn[nH]c12` [Example 2, N-(3-(5-Chloro-2-methoxyphenyl)-1-methyl-1H-pyrazol-4-yl)-1H-pyrazolo[4,3-c]pyridine-7-carboxamide], the IC50 in assay [1] came to 35.9 nM. For the same compound, the Ki in assay [2] is 0.35 nM; in assay [3], 1.35 nM.

Turning to `COc1ccc(Cl)cc1-c1n[nH]cc1NC(=O)c1cncc2scnc12` [Example 3, N-(3-(5-Chloro-2-methoxyphenyl)-1H-pyrazol-4-yl)thiazolo[5,4-c]pyridine-7-carboxamide], the Ki in assay [2] worked out at 0.96 nM; in assay [3] it was 6.55 nM.

Regarding `O=C(Nc1c[nH]nc1-c1cc(Cl)ccc1OC(F)F)c1cncc2scnc12` [Example 4, N-(3-(5-chloro-2-(difluoromethoxy)phenyl)-1H-pyrazol-4-yl)thiazolo[5,4-c]pyridine-7-carboxamide], the values for the Ki in assay [2] and in assay [3] were 2.02 nM and 9.5 nM, respectively.

Take `Nc1nc2c(C(=O)Nc3c[nH]nc3-c3cc(Cl)ccc3OC(F)F)cncc2s1` [Example 5, 2-amino-N-(3-(5-chloro-2-(difluoromethoxy)phenyl)-1H-pyrazol-4-yl)thiazolo[5,4-c]pyridine-7-carboxamide]: the figures for the Ki in assay [2] and in assay [3] were 0.06 nM and 0.97 nM, respectively.

For `O=C(Nc1c[nH]nc1-c1cc(Cl)ccc1OC(F)F)c1cncc2cn[nH]c12` [Example 6, N-(3-(5-chloro-2-(difluoromethoxy)phenyl)-1H-pyrazol-4-yl)-1H-pyrazolo[4,3-c]pyridine-7-carboxamide], the Ki in assay [2] was determined as 0.48 nM; in assay [3], 7.35 nM.

Turning to `O=C(Nc1c[nH]nc1-c1cc(Cl)ccc1OC(F)F)c1snc2cccnc12` [Example 7, N-(3-(5-chloro-2-(difluoromethoxy)phenyl)-1H-pyrazol-4-yl)isothiazolo[4,3-b]pyridine-3-carboxamide], in assay [1], inhibition was half-maximal at 20.2 nM (IC50). Further, the Ki was found to be 0.6 nM in assay [2] and 0.54 nM in assay [3].

For `O=C(Nc1c[nH]nc1-c1cc(Cl)ccc1OC(F)F)c1cnc2[nH]ccc2n1` [Example 8, N-(3-(5-chloro-2-(difluoromethoxy)phenyl)-1H-pyrazol-4-yl)-5H-pyrrolo[3,2-b]pyrazine-2-carboxamide], the values for the Ki in assay [2] and in assay [3] were 0.34 nM and 0.57 nM, respectively.

In the case of `Nc1nn2cccnc2c1C(=O)Nc1c[nH]nc1-c1cc(Cl)ccc1OC(F)F` [Example 9, 2-amino-N-(3-(5-chloro-2-(difluoromethoxy)phenyl)-1H-pyrazol-4-yl)pyrazolo[1,5-a]pyrimidine-3-carboxamide], in assay [1], the IC50 was 7.9 nM. Further, the results for the Ki in assay [2] and in assay [3] were 0.17 nM and 0.49 nM, respectively.

Take `O=C(Nc1c[nH]nc1-c1cc(Cl)ccc1OC(F)F)c1cncc2ccoc12` [Example 10, N-(3-(5-chloro-2-(difluoromethoxy)phenyl)-1H-pyrazol-4-yl)furo[3,2-c]pyridine-7-carboxamide]: the IC50 in assay [1] stood at 50.6 nM. Also, the Ki amounted to 0.33 nM in assay [2] and 0.85 nM in assay [3].

As for `O=C(Nc1c[nH]nc1-c1cc(Cl)ccc1OC(F)F)c1coc2cccnc12` [Example 11, N-(3-(5-chloro-2-(difluoromethoxy)phenyl)-1H-pyrazol-4-yl)furo[3,2-b]pyridine-3-carboxamide], the IC50 in assay [1] was found to be 17.5 nM. Moreover, the values for the Ki in assay [2] and in assay [3] were 0.49 nM and 0.56 nM, respectively.

On to `O=C(Nc1c[nH]nc1-c1cc(Cl)ccc1OC(F)F)c1cnn2cc(F)cnc12` [Example 12, N-(3-(5-chloro-2-(difluoromethoxy)phenyl)-1H-pyrazol-4-yl)-6-fluoropyrazolo[1,5-a]pyrimidine-3-carboxamide], for which, in assay [1], the IC50 stood at 16.8 nM. Also, the Ki in assay [2] is 0.09 nM; in assay [3], 0.41 nM.

In assay [1], `Cc1ccn2ncc(C(=O)Nc3c[nH]nc3-c3cc(Cl)ccc3OC(F)F)c2n1` [Example 13, N-(3-(5-chloro-2-(difluoromethoxy)phenyl)-1H-pyrazol-4-yl)-5-methylpyrazolo[1,5-a]pyrimidine-3-carboxamide] yielded a half-maximal inhibitory concentration (IC50) of 41.5 nM. The Ki came out at 0.41 nM in assay [2] and 2.29 nM in assay [3].

`COc1ccn2ncc(C(=O)Nc3c[nH]nc3-c3cc(Cl)ccc3OC(F)F)c2n1` [Example 14, N-(3-(5-chloro-2-(difluoromethoxy)phenyl)-1H-pyrazol-4-yl)-5-methoxypyrazolo[1,5-a]pyrimidine-3-carboxamide] yielded an IC50 in assay [1] of 3.8 nM. Further, the Ki in assay [2] was 0.04 nM; in assay [3], 0.18 nM.

Regarding `O=C(Nc1c[nH]nc1-c1cc(Cl)ccc1OC(F)F)c1cncc2[nH]cnc12` [Example 15, N-(3-(5-chloro-2-(difluoromethoxy)phenyl)-1H-pyrazol-4-yl)-3H-imidazo[4,5-c]pyridine-7-carboxamide], the Ki in assay [2] was determined as 2.55 nM; in assay [3], 5.67 nM.

The values are drawn from patent publication US11649241B2, “Pyrazolochlorophenyl compounds, compositions and methods of use thereof” (Genentech, Inc., priority 2017, dated 2023).
